In series [1] the test system is H460 human lung carcinoma. Format: in vivo, mice. Conditions: for tumor growth inhibition: H460 in CD-1 nude mice, KS119W 4 doses 180 mg/kg and 1 dose 240 mg/kg, CTX 100 mg/kg per dose, ip on days 15, 22, 27, 34, 43, CTX two hours after KS119W, FIG. 9; for reduction of final tumor volume compared with control group: H460, daily ip, FIG. 8. The protocol:
(§1) The anti-tumor effects of aforementioned prodrugs are evaluated in both solid and liquid tumor models, including the B16-F10 murine melanoma, HTB177 human lung carcinoma models, DLD1 human colon carcinoma, EMT-6 murine mammary gland carcinoma, L1210 murine leukemia, lymphoma, prostate cancer, pancreatic cancer, and head-and-neck cancer. The prodrugs are given intravenously, orally, or intraperitoneally at doses from 10 mg/kg to 2000 mg/kg; they are give at different dosing schedules such as 4 times daily, once daily, or once every several days for up to 60 doses. Testing tumor cells were implanted subcutaneously into mice, which were randomized into groups immediately after tumor cell implantation (Day 0). Mice were injected intraperitoneally (ip) with either a bolus injection of 0.1 mL PBS or drug. The treatment was carried out in a designed dosing schedule. Tumor measurement in three dimensions was determined once a week with the formula L×H×W/2, where L, H, and W represent length, height, and width, respectively.
(§2) Efficacy of KS119 was studied in murine tumor model and human xenograft models. EMT-6 murine mammary carcinoma cells (3×10^5 cells/mouse) were implanted subcutaneously into Balb/c mice. H460 human lung carcinoma cells, HT29 human colon carcinoma cells and SHP77 human lung carcinoma cells were established as solid xenografts in nu/nu CD-1 mice and Scid/Beige mice with 7×10^7 cells/mouse, respectively. After implantation, tumors were allowed to grow to a size of 150 to 200 mm^3 before starting treatment with KS119. KS119 was formulated in a solvent containing polyethylene glycol 300 (PEG), ethyl alcohol, citric acid, and ascorbic acid.
(§3) Efficacies of KS119W and KS119 were compared with equivalence molar doses in EMT-6 tumor and H460 tumor models. KS119W was formulated with 0.25M sodium bicarbonate solution. The treatment was started when tumors researched 150 to 200 mm^3, and lasted up to 2 weeks. KS119 at doses of 80 and 100 mg/kg and KS119W at doses of 97.6 and 121.3 mg/kg were daily administrated into mice via ip injection. […] To assess the toxicity of treatment, body weight and peripheral blood cell count were monitored after treatment.
(§4) Combined therapy of KS119W with cytoxan (CTX) was evaluated by using KS119W at dose below the MTD in combination with nontoxic dose of CTX against EMT-6 murine mammary carcinoma and H460 human lung carcinoma in CD-1 nude mice. The tumors were allowed to grow to a size of approximately 200 mm^3. In H460 tumor model, the animals received either with 4 doses 180 mg/kg and 1 dose 240 mg/kg of KS119 or CTX at dose of 100 mg/kg per dose per animal, ip injecting the drugs on 15, 22, 27, 34 and 43 days after the tumor implantation. In the combination studies, CTX was given two hours after dosing KS119W.

Series [2] relates to EMT-6 murine mammary carcinoma. It is filed as in vivo, mice. The settings on record: for tumor growth inhibition: EMT-6, KS119W daily 97 mg/kg for 7 doses, CTX 100 mg/kg ip once per week for 4 doses. The protocol:
as §1, §2, §3, §4

Series [3] has as its system CHO-SCS-II (non-transfected parental line). The series is described as follows: Aerobic/hypoxic cell survival, parental CHO cells. It is filed as cell-based. Conditions: drug 10 μM. How it is done:
(§5) EMT6 or CHO (parental or human cytochrome P-450 reductase transfected) cells, seeded in glass milk dilution bottles, were gassed for 2 hours through a rubber septum fitted with 13 gauge (inflow) and 18 gauge (outflow) needles with a mixture of 5% CO2, oxygen at various concentrations, with the balance of the mixture made up of nitrogen, to establish various hypoxic conditions. Drugs were then injected without disrupting hypoxia. After two hours, cells were collected and plated in a clonogenic assay to determine the surviving fraction, compared to untreated controls.
(§6) For in vitro analysis, KS119W must be converted to KS119OH (1) in an AP-catalyzed reaction shown above in FIG. 2, as the phosphorylated parent drug cannot cross cell membranes. KS119OH is then used in all subsequent in vitro studies shown in this section.
(§7) Like KS119, cytochrome P-450 reductase can activate KS1190H under hypoxic conditions.

For series [4], the system named is CHO-450red (human cytochrome P-450 reductase transfected CHO cells). Nature of the series: Aerobic/hypoxic cell survival, cytochrome P-450 reductase transfected CHO cells. It is filed as cell-based. Conditions: drug 10 μM. How it is done:
as §5, §6, §7

The nature of series [5]: Toxicity of treatment in tumor-bearing mice (body weight, blood cell count, appearance). Format: in vivo. The settings on record: for toxicity of treatment (body weight, peripheral blood cell count): KS119 80 and 100 mg/kg, KS119W 97.6 and 121.3 mg/kg, daily ip. The protocol:
as §1, with “respectively. The toxicity of these drugs in mice was mild as determined by body weight loss and animal appearance.” for “respectively.”
Efficacies of KS119W and KS119 were compared with equivalence molar doses in EMT-6 tumor and H460 tumor models. KS119W was formulated with 0.25M sodium bicarbonate solution. The treatment was started when tumors researched 150 to 200 mm^3, and lasted up to 2 weeks. KS119 at doses of 80 and 100 mg/kg and KS119W at doses of 97.6 and 121.3 mg/kg were daily administrated into mice via ip injection. […] The toxicity of KS119 and KS119W were dose-dependent. To assess the toxicity of treatment, body weight and peripheral blood cell count were monitored after treatment.
as §4, with “KS119W. […] The inhibition of combination therapy was statistically significant against all control groups with p values of 0.003, 0.015 and 0.038, respectively. Additive toxicity at the doses used for combination was manageable; while the 180 mg/kg qw ×4 doses of KS119W alone caused a maximum net body weight loss of 4.5%, the same dose in combination with 4 doses of CTX at 100 mg/kg per week caused 8.6% weight loss but no death. A similar degree of growth inhibition was also observed with EMT-6 tumor model. […]” for “KS119W.”

The test system of series [6] is EMT6 murine mammary carcinoma cells. Nature of the series: Aerobic/hypoxic cell survival (clonogenic assay), EMT6. Format: cell-based. Conditions: for in vitro cytotoxic activity to EMT6 cells versus parental racemic drug (potency and aerobic/hypoxic differential): de-phosphorylated enantiomers, aerobic/hypoxic cell assay; for cell kill: 0.1% oxygen, 10 μM drug concentration; for cell kill / cytotoxicity to EMT6 cells under oxygenated conditions: FIG. 5; for drug activity as a function of oxygen concentration: 10 or 25 μM, oxygen 0.05% to 21%, FIG. 6; for cytotoxicity to EMT6 cells under oxygenated conditions: normal air (21% oxygen), concentrations up to 25 μM. How it is done:
as §5, §6
Moreover, the R- and S-enantiomers of KS119W (VNP40541 and VNP40551) were converted to the corresponding de-phosphorylated forms for study in the in vitro aerobic/hypoxic cell assay.

Series [7] relates to SHP77 human lung carcinoma. Nature of the series: In vivo anti-tumor activity, SHP77 xenograft. Also noted: species or system mice. Conditions: SHP77/Scid-Beige; dose VNP40541 110 mpk, VNP40551 85 mpk. How it is done: as §1, with “respectively. The toxicity of these drugs in mice was mild as determined by body weight loss and animal appearance.” for “respectively.”
Efficacy of KS119 was studied in murine tumor model and human xenograft models. EMT-6 murine mammary carcinoma cells (3×10^5 cells/mouse) were implanted subcutaneously into Balb/c mice. […]

Series [8] in a line: Maximum tolerated dose (MTD) finding. It is filed as in vivo, mice. How it is done: In order to fairly select a better compound from two enantiomers of KS119W for future clinical development, finding maximum tolerated dose (MTD) for VNP40541 (R-form) and VNP40551 (S-form) was conducted and the results were shown as Table 3.
Series [9] is described as follows: Solubility of KS119 in co-solvent system. Format: physicochemical. The settings on record: polyethylene glycol (PEG) and ethanol co-solvent system, organic solvent or mixture, read-out: solubility in co-solvent system like polyethylene glycol (PEG) and ethanol.
Where [10] appears, read: KS119W 97.2 mg/kg ×10 doses, KS119 equal molar dose 80 mg/kg.
Setting [11] is: KS119W 121.6 mg/kg ×7 doses, KS119 equal molar dose 100 mg/kg.

Read-outs that look alike come from different tables or passages of the source.

On to `O=P1(N(CCCl)CCCl)NCCCO1` (stereo not shown) [CTX, reference compound], for which the figures for the tumor growth inhibition in series [1] and in series [2] were 54% and “negligible effect”, respectively.
For `CC(OC(=O)N(N(CCCl)S(C)(=O)=O)S(C)(=O)=O)c1ccc([N+](=O)[O-])c(OP(=O)(O)O)c1` (stereo not shown) [KS119W, 1,2-Bis(methylsulfonyl)-2-(2-chloroethyl)hydrazine-carboxylic acid 1-(3-dihydrogenphosphonoxy-4-nitrophenyl)ethyl ester], the “Surviving fraction at 0.1% oxygen” value in series [3] was found to be 0.3336; in [4] it was 0.009444. The “Surviving fraction in air” value in series [3] is reported as 1.185; in series [4] it was 0.8791. Further, the figures for the “reduction of final tumor volume compared with control group” value (“reduction of final tumor volume” for short) in series [1] (setting [10]) and in series [1] (setting [11]) were 60% and 78%, respectively. For the same compound, the tumor growth inhibition in series [1] was 78%; in series [2], 59%. Further, the “toxicity of treatment (body weight, peripheral blood cell count)” value in [5] is reported as “not significant hematological toxicity or severe weight loss”. For the same compound, in series [5] (KS119W 180 mg/kg qw ×4 doses alone or with 4 doses of CTX at 100 mg/kg per week), the “maximum net body weight loss” value was 4.5%.
In the case of `C[C@@H](OC(=O)N(N(CCCl)S(C)(=O)=O)S(C)(=O)=O)c1ccc([N+](=O)[O-])c(O)c1` [R-KS119OH], in [6], the “in vitro cytotoxic activity to EMT6 cells versus parental racemic drug (potency and aerobic/hypoxic differential)” value is given as “very similar to the parental racemic drug”.
Take `CC(OC(=O)N(N(CCCl)S(C)(=O)=O)S(C)(=O)=O)c1ccc([N+](=O)[O-])c(O)c1` (racemic) [KS119OH]: in series [6], the cell kill is ~5 orders of magnitude, the “drug activity as a function of oxygen concentration” value is listed as “significant drug activity at all oxygen concentrations below 10% oxygen” and the “cytotoxicity to EMT6 cells under oxygenated conditions” value was “virtually inactive”.
For the compound `C[C@H](OC(=O)N(N(CCCl)S(C)(=O)=O)S(C)(=O)=O)c1ccc([N+](=O)[O-])c(OP(=O)(O)O)c1` [VNP40551], the “Surviving fraction at 0.1% oxygen” value in [3] was found to be 0.1188; in series [4] it was 0.002553. The “Surviving fraction in air” value in [3] is 1.148; in series [4] it was 1.015. For the same compound, the “Inhibition (%)” value in series [7] was 82%; in [1] (H460/Nude Mice, dose VNP40541 80-140 mpk, VNP40551 40-80 mpk) it was 53-80%; in series [2] (EMT6/BLAB-c Mice, dose VNP40541 85-115 mpk, VNP40551 55-85 mpk), 52-78%. In addition, the MTD was 85 mpk in [8] (BALB/c mice, × 5); 80 mpk in [8] (Nude CD-1 mice, × 10); 85 mpk in [8] (Scid/Beige mice, × 8).
`C[C@H](OC(=O)N(N(CCCl)S(C)(=O)=O)S(C)(=O)=O)c1ccc([N+](=O)[O-])c(O)c1` [S-KS119OH]: the “in vitro cytotoxic activity to EMT6 cells versus parental racemic drug (potency and aerobic/hypoxic differential)” value in series [6] is “very similar to the parental racemic drug”.
For the compound `CC(OC(=O)N(N(CCCl)S(C)(=O)=O)S(C)(=O)=O)c1ccc([N+](=O)[O-])cc1` (stereo not shown) [KS119, 1,2-Bis(methylsulfonyl)-2-(2-chloroethyl)-hydrazine carboxylic acid 1-(4-nitrophenyl)ethyl ester, reference compound], in [6], the cell kill is ~5 orders of magnitude, the “drug activity as a function of oxygen concentration” value is recorded as “significant drug activity at all oxygen concentrations below 10% oxygen” and the “cytotoxicity to EMT6 cells under oxygenated conditions” value is “virtually inactive”. Besides, the solubility (commonly the dissolved amount per volume that the medium holds) in series [9] is < 5000 µg/mL. Besides, the “reduction of final tumor volume” value in series [1] (setting [10]) was 40%. Also, the “reduction of final tumor volume” value in [1] (setting [11]) came out at 40%. The “toxicity of treatment (body weight, peripheral blood cell count)” value in [5] is recorded as “not significant hematological toxicity or severe weight loss”.

The values are drawn from patent US7405317B2, “Phosphate-bearing prodrugs of sulfonyl hydrazines as hypoxia-selective antineoplastic agents” (priority 2004, dated 2008).
